Laboratory results as given in paper PMC7714403 (JCI Insight, 2020).

How the values were obtained:
ULK3 = ULK3 (Homo sapiens, UniProt Q6PHR2); experiment: KiNativ, OCI cells live cell; format: cell-based; settings: labeling site Lys1, peptide EVVAIKCVAK
ROCK1 = ROCK1 (Homo sapiens, UniProt Q13464); experiment: KiNativ, OCI cells live cell; format: cell-based; settings: 2 h, labeling site Other, peptide […]
AKT1, AKT3 = experiment: KiNativ, OCI cells live cell; format: cell-based, human
LYN = LYN (Homo sapiens, UniProt P07948); experiment: KiNativ, OCI cells live cell; format: cell-based; settings: 2 h
BRAF = BRAF (Homo sapiens, UniProt P15056); experiment: KiNativ, OCI cells live cell; format: cell-based; settings: 2 h, labeling site Lys2, peptide […]
IRAK2 = IRAK2 (Homo sapiens, UniProt O43187); experiment: KiNativ, OCI cells live cell; format: cell-based; settings: 2 h, labeling site Lys1, peptide […]
LOK = LOK (Homo sapiens, UniProt O94804); experiment: KiNativ, OCI cells live cell; format: cell-based; settings: labeling site Lys2, peptide DLKAGNVLMTLEGDIR
DLK = DLK (Homo sapiens, UniProt Q12852); experiment: KiNativ, OCI cells live cell; format: cell-based; settings: labeling site Lys2, peptide DLKSPNMLITYDDVVK
FLT3 D835Y = biological target: T1, FLT3 D835Y (Homo sapiens, UniProt P36888, D835Y); experiment: KdELECT binding assay
T1 construct: purchased Eurofins DiscoverX

TLK1 = biological target: T2, TLK1 (Homo sapiens, UniProt Q9UKI8); experiment: KiNativ, OCI cells live cell; format: cell-based; settings: 2 h
T2 sequence (Q9UKI8 1-766): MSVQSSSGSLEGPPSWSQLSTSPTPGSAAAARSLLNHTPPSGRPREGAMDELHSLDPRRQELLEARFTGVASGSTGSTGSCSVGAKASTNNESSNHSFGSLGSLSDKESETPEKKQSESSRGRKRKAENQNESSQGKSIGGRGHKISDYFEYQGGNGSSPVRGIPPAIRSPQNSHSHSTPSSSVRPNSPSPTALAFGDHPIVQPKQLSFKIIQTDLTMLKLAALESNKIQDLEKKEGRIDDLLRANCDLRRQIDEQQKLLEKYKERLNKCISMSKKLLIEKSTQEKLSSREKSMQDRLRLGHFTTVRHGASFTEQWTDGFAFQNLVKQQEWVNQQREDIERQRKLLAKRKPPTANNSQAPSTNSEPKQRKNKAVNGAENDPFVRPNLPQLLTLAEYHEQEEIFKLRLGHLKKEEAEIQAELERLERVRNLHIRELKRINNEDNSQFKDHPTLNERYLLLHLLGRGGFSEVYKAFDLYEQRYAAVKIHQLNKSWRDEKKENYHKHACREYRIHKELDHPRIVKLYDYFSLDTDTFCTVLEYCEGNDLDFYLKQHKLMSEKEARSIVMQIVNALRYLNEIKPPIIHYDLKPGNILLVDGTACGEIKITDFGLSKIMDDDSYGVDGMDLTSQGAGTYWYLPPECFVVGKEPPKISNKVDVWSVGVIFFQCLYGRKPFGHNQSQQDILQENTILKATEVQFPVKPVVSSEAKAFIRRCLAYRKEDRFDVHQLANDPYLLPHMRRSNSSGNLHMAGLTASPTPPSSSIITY

MARK2, MARK3 = experiment: KiNativ, OCI cells live cell; format: cell-based, human; settings: labeling site Lys2, peptide DLKAENLLLDADMNIK
CSF1R = biological target: T3, CSF1R (Homo sapiens, UniProt P07333); experiment: KdELECT binding assay
T3 construct: purchased Eurofins DiscoverX

SRPK1, SRPK2 = experiment: KiNativ, OCI cells live cell; format: cell-based, human; settings: labeling site Lys1, peptide FVAMKVVK
MAP3K3 = MAP3K3 (Homo sapiens, UniProt Q99759); experiment: KiNativ, OCI cells live cell; format: cell-based; settings: 2 h, labeling site Lys1, peptide […]
NEK7 = NEK7 (Homo sapiens, UniProt Q8TDX7); experiment: KiNativ, OCI cells live cell; format: cell-based; settings: 2 h, labeling site Lys1, peptide […]
GCK = biological target: T4, GCK (Homo sapiens, UniProt Q12851); experiment: Kinase assay by Reaction Biology; format: biochemical; set-up: purchased Eurofins DiscoverX
T4 sequence (Q12851 1-820): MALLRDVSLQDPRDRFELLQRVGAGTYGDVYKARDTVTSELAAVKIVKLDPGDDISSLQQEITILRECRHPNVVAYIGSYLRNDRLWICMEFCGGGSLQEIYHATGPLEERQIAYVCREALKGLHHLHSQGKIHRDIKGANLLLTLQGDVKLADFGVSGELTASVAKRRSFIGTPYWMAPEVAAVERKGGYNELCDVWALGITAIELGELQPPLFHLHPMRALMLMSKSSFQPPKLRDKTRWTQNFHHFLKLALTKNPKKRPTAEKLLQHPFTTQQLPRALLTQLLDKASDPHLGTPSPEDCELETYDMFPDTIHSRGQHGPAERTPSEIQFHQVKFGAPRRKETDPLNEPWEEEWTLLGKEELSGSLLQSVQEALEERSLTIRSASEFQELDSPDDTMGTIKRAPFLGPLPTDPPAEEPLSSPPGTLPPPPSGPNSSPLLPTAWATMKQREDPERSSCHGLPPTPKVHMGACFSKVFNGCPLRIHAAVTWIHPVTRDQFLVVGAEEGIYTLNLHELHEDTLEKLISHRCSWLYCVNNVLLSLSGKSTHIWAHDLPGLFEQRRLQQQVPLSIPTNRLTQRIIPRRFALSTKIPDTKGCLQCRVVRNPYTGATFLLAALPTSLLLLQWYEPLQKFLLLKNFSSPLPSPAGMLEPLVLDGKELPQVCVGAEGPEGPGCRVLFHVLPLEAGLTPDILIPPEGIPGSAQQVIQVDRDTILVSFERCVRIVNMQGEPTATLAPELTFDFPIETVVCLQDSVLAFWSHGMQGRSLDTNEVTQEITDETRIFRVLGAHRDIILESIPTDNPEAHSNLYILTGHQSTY

YANK3 = YANK3 (Homo sapiens, UniProt Q86UX6); experiment: KiNativ, OCI cells live cell; format: cell-based; settings: 2 h, labeling site Lys2, peptide […]
p38a = p38a (Homo sapiens, UniProt Q16539); experiment: KiNativ, OCI cells live cell; format: cell-based
Chain of p38a (Q16539 whole entry): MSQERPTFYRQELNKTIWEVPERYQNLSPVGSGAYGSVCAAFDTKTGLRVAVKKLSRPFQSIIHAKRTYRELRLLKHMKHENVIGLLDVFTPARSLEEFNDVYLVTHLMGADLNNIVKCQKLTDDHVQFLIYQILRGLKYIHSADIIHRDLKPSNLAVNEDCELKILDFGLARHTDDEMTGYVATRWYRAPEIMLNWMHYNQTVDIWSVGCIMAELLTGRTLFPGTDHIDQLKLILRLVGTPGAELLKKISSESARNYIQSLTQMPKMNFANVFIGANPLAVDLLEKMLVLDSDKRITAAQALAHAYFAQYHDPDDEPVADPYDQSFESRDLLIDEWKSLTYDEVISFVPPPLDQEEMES

Chain of LYN (P07948 whole entry): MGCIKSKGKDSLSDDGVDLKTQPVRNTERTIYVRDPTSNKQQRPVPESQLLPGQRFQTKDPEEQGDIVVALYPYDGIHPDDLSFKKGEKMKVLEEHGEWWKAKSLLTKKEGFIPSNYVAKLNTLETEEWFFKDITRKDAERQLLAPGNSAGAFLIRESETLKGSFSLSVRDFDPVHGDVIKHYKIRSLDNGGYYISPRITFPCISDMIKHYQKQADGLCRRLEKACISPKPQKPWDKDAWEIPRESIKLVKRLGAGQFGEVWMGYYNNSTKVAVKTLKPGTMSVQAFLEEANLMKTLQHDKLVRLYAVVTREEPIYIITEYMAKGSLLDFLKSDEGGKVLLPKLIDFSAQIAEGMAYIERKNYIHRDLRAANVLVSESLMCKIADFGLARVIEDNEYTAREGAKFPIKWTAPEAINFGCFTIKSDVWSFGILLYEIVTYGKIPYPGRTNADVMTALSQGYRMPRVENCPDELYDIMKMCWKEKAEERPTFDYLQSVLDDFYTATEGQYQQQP
Chain of MAP3K3 (Q99759 whole entry): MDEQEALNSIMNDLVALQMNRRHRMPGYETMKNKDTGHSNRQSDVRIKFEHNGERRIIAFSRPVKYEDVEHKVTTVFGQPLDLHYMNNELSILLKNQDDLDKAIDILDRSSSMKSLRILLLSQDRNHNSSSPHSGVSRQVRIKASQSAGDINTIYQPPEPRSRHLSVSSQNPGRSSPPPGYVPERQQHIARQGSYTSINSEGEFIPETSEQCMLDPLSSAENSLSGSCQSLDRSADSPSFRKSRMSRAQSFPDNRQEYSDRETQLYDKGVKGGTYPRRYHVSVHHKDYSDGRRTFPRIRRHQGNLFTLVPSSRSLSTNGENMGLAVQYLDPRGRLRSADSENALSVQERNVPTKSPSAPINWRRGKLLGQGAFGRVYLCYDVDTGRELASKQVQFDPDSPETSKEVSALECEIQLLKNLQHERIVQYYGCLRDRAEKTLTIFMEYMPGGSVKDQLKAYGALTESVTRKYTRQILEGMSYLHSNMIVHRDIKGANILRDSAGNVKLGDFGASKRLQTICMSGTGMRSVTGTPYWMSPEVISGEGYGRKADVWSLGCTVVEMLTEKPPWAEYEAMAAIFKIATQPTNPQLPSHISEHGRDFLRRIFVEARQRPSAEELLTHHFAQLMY
Chain of IRAK2 (O43187 whole entry): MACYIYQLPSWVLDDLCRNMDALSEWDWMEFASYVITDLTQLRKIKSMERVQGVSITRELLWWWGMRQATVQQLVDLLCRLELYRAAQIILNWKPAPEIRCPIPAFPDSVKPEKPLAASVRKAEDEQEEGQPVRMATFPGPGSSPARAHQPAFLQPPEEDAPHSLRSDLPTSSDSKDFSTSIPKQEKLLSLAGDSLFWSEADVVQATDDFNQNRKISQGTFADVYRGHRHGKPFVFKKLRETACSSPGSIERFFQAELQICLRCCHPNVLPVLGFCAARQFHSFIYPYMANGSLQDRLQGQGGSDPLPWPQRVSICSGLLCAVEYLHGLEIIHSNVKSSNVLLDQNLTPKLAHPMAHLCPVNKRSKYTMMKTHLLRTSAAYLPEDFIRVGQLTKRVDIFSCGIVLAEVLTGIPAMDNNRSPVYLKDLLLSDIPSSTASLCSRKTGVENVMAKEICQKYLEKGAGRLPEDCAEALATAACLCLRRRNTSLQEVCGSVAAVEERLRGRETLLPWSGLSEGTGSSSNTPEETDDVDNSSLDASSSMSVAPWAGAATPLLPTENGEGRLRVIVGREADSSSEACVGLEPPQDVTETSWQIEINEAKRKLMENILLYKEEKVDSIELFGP
Chain of ROCK1 (Q13464 whole entry): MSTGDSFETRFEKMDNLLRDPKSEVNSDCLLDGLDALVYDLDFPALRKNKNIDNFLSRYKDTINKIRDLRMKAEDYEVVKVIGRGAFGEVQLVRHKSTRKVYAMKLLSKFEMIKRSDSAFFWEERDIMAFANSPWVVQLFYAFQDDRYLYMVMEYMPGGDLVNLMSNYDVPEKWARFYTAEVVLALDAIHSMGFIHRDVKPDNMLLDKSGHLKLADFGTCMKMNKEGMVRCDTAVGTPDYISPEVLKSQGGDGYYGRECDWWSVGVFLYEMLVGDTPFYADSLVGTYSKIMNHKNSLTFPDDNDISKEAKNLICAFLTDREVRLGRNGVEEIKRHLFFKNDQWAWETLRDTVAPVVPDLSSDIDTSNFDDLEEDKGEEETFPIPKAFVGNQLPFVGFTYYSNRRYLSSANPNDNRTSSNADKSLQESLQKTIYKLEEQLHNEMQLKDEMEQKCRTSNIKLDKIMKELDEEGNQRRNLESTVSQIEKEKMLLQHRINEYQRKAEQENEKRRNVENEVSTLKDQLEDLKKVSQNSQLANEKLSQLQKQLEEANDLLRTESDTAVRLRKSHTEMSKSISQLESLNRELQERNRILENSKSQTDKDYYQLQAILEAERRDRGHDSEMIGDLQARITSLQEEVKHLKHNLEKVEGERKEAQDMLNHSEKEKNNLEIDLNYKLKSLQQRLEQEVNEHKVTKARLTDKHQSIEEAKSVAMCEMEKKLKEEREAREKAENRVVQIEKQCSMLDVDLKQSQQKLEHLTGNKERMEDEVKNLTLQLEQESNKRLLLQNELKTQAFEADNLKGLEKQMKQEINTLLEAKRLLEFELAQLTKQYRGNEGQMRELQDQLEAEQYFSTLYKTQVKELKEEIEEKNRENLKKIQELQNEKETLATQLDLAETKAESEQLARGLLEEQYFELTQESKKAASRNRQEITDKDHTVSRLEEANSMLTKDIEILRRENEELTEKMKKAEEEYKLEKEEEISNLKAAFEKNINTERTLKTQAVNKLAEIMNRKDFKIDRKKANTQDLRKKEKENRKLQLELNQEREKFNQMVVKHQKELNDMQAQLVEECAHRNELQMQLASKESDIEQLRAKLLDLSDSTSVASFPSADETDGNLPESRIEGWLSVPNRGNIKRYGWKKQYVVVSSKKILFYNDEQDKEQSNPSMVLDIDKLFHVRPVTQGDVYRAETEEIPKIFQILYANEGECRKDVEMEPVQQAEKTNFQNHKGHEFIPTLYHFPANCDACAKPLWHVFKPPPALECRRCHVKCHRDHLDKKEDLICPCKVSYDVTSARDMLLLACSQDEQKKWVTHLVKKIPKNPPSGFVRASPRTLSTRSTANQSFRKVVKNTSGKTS
Chain of LOK (O94804 whole entry): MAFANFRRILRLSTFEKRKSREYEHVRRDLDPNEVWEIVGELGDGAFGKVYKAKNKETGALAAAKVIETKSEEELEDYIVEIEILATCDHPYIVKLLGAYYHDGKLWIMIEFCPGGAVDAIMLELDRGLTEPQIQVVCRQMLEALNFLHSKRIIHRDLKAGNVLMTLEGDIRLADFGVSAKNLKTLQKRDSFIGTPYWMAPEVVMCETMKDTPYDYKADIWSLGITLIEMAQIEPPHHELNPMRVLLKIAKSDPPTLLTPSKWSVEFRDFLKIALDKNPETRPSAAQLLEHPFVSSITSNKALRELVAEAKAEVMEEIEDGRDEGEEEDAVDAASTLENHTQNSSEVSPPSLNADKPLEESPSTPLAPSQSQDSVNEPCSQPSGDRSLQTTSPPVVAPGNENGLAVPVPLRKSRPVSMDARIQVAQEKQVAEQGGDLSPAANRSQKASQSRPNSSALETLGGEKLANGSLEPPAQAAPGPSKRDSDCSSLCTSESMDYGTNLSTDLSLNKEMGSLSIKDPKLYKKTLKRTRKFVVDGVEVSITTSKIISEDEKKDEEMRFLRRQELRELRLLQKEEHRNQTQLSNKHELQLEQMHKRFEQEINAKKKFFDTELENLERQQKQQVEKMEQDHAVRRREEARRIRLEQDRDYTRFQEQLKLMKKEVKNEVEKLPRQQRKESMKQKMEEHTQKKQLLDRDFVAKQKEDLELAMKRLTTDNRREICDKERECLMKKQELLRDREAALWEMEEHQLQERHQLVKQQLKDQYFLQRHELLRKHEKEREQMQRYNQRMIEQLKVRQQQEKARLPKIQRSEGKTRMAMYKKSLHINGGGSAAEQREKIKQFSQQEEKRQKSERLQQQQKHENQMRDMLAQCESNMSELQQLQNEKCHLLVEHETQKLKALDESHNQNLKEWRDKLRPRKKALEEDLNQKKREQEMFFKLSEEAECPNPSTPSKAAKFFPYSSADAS
Chain of ULK3 (Q6PHR2 whole entry): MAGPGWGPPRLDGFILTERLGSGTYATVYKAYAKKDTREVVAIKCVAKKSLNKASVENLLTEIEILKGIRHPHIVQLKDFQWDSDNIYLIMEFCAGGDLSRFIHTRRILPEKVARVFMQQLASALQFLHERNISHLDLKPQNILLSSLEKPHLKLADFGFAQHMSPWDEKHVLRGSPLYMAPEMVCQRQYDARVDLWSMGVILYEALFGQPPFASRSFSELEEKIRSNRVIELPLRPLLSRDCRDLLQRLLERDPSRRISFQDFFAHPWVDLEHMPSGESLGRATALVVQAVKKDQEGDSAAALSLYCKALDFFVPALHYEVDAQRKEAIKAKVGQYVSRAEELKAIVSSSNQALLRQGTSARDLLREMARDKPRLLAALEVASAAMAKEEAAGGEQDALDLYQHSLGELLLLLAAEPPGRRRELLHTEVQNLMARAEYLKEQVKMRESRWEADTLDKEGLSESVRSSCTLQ

CN1CCN(Cc2ccc(Nc3ncc(Cl)c(Nc4ccccc4S(=O)(=O)N(C)C)n3)cc2)CC1 [TP-0903]
Inhibition (ULK3): 40.5%
inhibition at 0.1 µM (ROCK1): 25%
Inhibition (AKT1, AKT3; labeling site Lys1, peptide YYAMKILK): -15.9%
Inhibition (AKT1, AKT3; labeling site Lys2, peptide DLKLENLMLDKDGHIK): -30.0%
inhibition at 0.1 µM (LYN; labeling site Activation Loop, peptide EGAKFPIKWTAPEAINFGCFTIK): 19.1%
inhibition at 0.1 µM (LYN; labeling site Lys1, peptide VAVKTLKPGTMSVQAFLEEANLMK): 17.6%
inhibition at 0.1 µM (BRAF): -3.1%
inhibition at 0.1 µM (IRAK2): -9.1%
Inhibition (LOK): 86.9%
Inhibition (DLK): 91.0%
Kd (FLT3 D835Y): 1.4 nM
inhibition at 0.1 µM (TLK1; labeling site Lys1, peptide YAAVKIHQLNK): -15.2%
inhibition at 0.1 µM (TLK1; labeling site Lys2, peptide YLNEIKPPIIHYDLKPGNILLVDGTACGEIK): -2.5%
Inhibition (MARK2, MARK3): 50.8%
Kd (CSF1R): 16 nM
Inhibition (SRPK1, SRPK2): -36.9%
inhibition at 0.1 µM (MAP3K3): 20%
inhibition at 0.1 µM (NEK7): -38.8%
IC50 (GCK): 2.5 nM
inhibition at 0.1 µM (YANK3): 8.4%
Inhibition (p38a; labeling site Lys2, peptide DLKPSNLAVNEDCELK): -2.7%
Inhibition (p38a; labeling site Other, peptide QELNKTIWEVPER): 5.6%
